# Read-outs that look alike come from different tables or passages of the source.
# Assays:
# [1] = tested on: P. falciparum asexual stages; conditions: asexual stages; TCAMS data; read-out: IC50 asexual; cited from earlier work
# [2] = tested on: luciferase reaction (BacTiter-Glo); assay: Interference assay (inhibition of the BacTiter-Glo luciferase reaction); format: biochemical; parameters: concentration or dose not given beside the values; conditions: ATP interference assay
# Description: To discard possible false-positive results, we performed an interference assay in parallel. […] […]. The ATP solution was made by dissolving ATP powder (ATP standard from the ATPlite 1 step assay kit, reference 6016731, Perkin Elmer) in culture medium. The positive control used was the Luciferase Inhibitor I Calbiochem (Merck, 119113) at 100 μM.
# [3] = tested on: P. falciparum stage V gametocytes; assay: Gametocytocidal ATP bioluminescence assay (single point 5 μM and 1 μM, dose-response); format: cell-based, Plasmodium falciparum; conditions: for Ratio IC50 HepG2/IC50 P. falciparum: IC50 HepG2 divided by IC50 P. falciparum gametocytes
# HepG2 cells = assay: Cytotoxicity in HepG2 cells (intracellular ATP, ATPlite, 48 h); format: cell-based, human; conditions: HepG2 cells; IC50 per ratio column head; unit inferred
# [4] = P. falciparum gametocytes, average, read-out: IC50 Pf Gametocytes average, IC50 (µM) average
# [5] = sexual stages (gametocytes), dose-response, read-out: IC50 sexual
Compound,% Control luminiscence [2] [%],IC50 [1] [nM],Ratio IC50 HepG2/IC50 P. falciparum [3],"IC50 [3, 4] [µM]",IC50 (HepG2 cells) [nM],"IC50 [3, 5] [µM]"
Nc1ncc(-c2ccc3nccc(-c4ccncc4)c3c2)cc1S(=O)(=O)N1CCOCC1 [TCMDC-134180],100,872,>3,6.9,> 25000,
COCCn1c(-c2cccc(Cl)c2)nn(-c2ccc([N+](=O)[O-])cc2C#N)c1=S [TCMDC-134719],97,178,>9,2.78,> 25000,2.78
N=c1n(CCN2CCCCC2)c2ccccc2n1CC(O)c1ccc(Cl)c(Cl)c1 (stereo not drawn) [TCMDC-124064],100,320,1.59,3.27,5200,3.27
Cc1ccccc1OCC(O)CNC1CCC(NCC(O)COc2ccccc2C)CC1 (stereo not drawn) [TCMDC-125142],99,1190,26,0.14,3780,0.144
COc1ccc(OC)c(-c2cccc(-c3cccc(NC(=O)c4ccc([N+](=O)[O-])o4)c3)n2)c1 [TCMDC-124799],100,371,8,0.78,6150,
Cc1cc(-c2cccc(CNC3CCCC3)c2)ccc1S(=O)(=O)NCCN1CCCC1 [TCMDC-132279],100,1240,6,1.24,7500,1.24
O=C(Nc1ccc2c(c1)CCCN2S(=O)(=O)c1cccs1)c1cc([N+](=O)[O-])ccc1Cl [TCMDC-125153],100,845,>9,2.66,> 25000,2.66
CN(C)c1ccc2c(c1)Sc1cc(N(C)C)ccc1N2C(=O)CCCC(=O)O [TCMDC-125778],100,802,,> 5,> 25000,
C[C@H](Cc1ccc(C[C@@H](C)NC[C@H](O)c2cccc(Cl)c2)cc1)NC[C@H](O)COc1ccccc1 [TCMDC-131549],100,1170,5,0.92,4700,0.923
CCN(CC)CCCNc1nccc(N2CCc3ncnc(Nc4ccc(OCc5cccc(F)c5)c(Cl)c4)c3C2)n1 [TCMDC-135406],100,111,8,0.72,5580,0.715
N=c1n(Cc2ccc(Cl)cc2)c2ccccc2n1CC(O)c1ccc(Cl)c(Cl)c1 (stereo not drawn) [TCMDC-123813],99,677,18,0.36,6500,0.357
COc1ccc2nc(-c3cccc(C)n3)nc(Nc3ccncc3)c2c1 [TCMDC-134670],100,669,,2.51,> 25000,
COc1ccc(C[C@H](N)C(=O)N[C@H]2[C@@H](O)[C@H](n3cnc4c(N(C)C)ncnc43)O[C@@H]2CO)cc1 [TCMDC-123927],100,299,4,0.65,2690,0.647
O=C(Nc1cccc(-c2cccc(-c3ccc(F)cc3)n2)c1)c1ccc([N+](=O)[O-])o1 [TCMDC-124807],100,361,4.55,1.53,6940,1.53
Cc1nn(CC(C)C)c2sc(C(=O)N3CCN(S(=O)(=O)c4ccc(C#N)cc4)CC3)cc12 [TCMDC-125045],92,739,>12,2.09,> 25000,2.09
Nc1nc(N)c2c(ccc3c2ccn3Cc2ccc(-c3ccccc3)cc2)n1 [TCMDC-137813],100,48,1.1,1.45,1600,1.45
Fc1ccc(OC2CN(c3nccc(NCc4ccccc4Cl)n3)C2)cc1 [TCMDC-135110],98,898,>10,2.51,> 25000,2.51
CN(C)CCCn1c(N)c(-c2nc3ccccc3[nH]2)c2nc(C#N)c(C#N)nc21 [TCMDC-123729],100,591,35,0.2,6930,

# More lines, main results first:
% Control luminiscence [2] [%],Compound,IC50 [1] [nM],Ratio IC50 HepG2/IC50 P. falciparum [3],"IC50 [3, 4] [µM]",IC50 (HepG2 cells) [nM],"IC50 [3, 5] [µM]"
100,CCN(CC)CCN(Cc1ccc(-c2ccc(C(F)(F)F)cc2)cc1)C(=O)c1ccc(-c2ccc(NC(=O)OC)cc2C)cc1 [TCMDC-141558],929,1.46,3.71,5400,3.71
85,COc1cc2c(cc1CCNCCCCNCCc1cc3c(cc1OC)CCCC3)CCCC2 [TCMDC-137319],996,<19,0.08,< 1560,0.084
100,O=C(Nc1cccc(Oc2ccccc2)c1)N[C@H]1CCN(Cc2ccc(OCCCN3CCCCC3)cc2)C1 [TCMDC-141785],724,3,1.13,3520,
100,CCCCCCC(N)c1ccc(OCCCOc2ccc(C(N)CCCCCC)cc2)cc1 (stereo not drawn) [TCMDC-137621],1140,36,0.0533,1900,0.053
100,CC(C)CC(=O)N(Cc1ccc(-c2ccc(CNC3Cc4ccccc4C3)cc2)cc1)C1CCNCC1 [TCMDC-141449],1170,10,0.63,6200,0.633
100,CCCCC(NCC)c1ccc(OCCOc2ccc(C(CCCC)NCC)cc2)cc1 (stereo not drawn) [TCMDC-137612],930,14,0.42,6100,0.423
100,CC(C)CNCc1ccc(-c2cccc(CN(CCN(C)C)C(=O)CCC3CCCC3)c2)cc1 [TCMDC-140553],809,10,0.54,5500,
100,CC(CCCCCC(=O)Nc1ccc(CC(C)NCCc2cccc(Cl)c2)cc1)NCCc1cccc(Cl)c1 (stereo not drawn) [TCMDC-139800],948,7.38,0.43,3200,0.433
100,CN1CCN(CCCN(Cc2ccc(-c3ccc(CNC4CCCC4)cc3)cc2)C(=O)CCC2CCCC2)CC1 [TCMDC-140560],886,11,0.53,6000,0.535
100,C=CCNC(CCCCC)c1ccc(OCCOc2ccc(C(CCCCC)NCC=C)cc2)cc1 (stereo not drawn) [TCMDC-137483],567,6.41,0.91,5800,0.905
100,CCCCCCCN1CC[C@@H](CCCc2ccnc3ccc(OC)cc23)[C@@H](CCN)C1 [TCMDC-139278],748,11,0.27,2980,0.267
100,CN1CCN(CCNc2c3ccccc3nc3c2ccc2ccccc23)CC1 [TCMDC-137723],606,17,0.39,6600,0.387
98,CC(Cc1ccc(CNC(=O)c2ccc(CC(C)NCCc3cccc(Cl)c3)cc2)cc1)NCCc1cccc(Cl)c1 (stereo not drawn) [TCMDC-139659],696,5.53,0.57,3150,
100,CC(C)CNCc1cccc(-c2ccc(CN(CCCN3CCN(C)CC3)C(=O)/C=C/c3ccccc3)cc2)c1 [TCMDC-140545],857,11,0.63,6650,
100,c1ccc2c(C3CCN(CCCCOc4ccc5c(c4)CCN(CC4CC4)CC5)CC3)c[nH]c2c1 [TCMDC-136244],982,10,0.71,6810,
100,CC(C)CNCc1ccc(-c2ccc(CN(CCCN3CCN(C)CC3)C(=O)/C=C/c3ccccc3)cc2)cc1 [TCMDC-140546],917,7,1,6990,1
94,CCCCCCCN1CC[C@@H](CCCc2ccnc3ccc(OCCN4CCNCC4)cc23)[C@@H](CC)C1 [TCMDC-139817],771,12,0.57,6750,0.567

# — publication PMC4552634, “A New Set of Chemical Starting Points with Plasmodium falciparum Transmission-Blocking Potential for Antimalarial Drug Discovery” (PLoS ONE, 2015)
